The values that follow come from patent US8362000B2, “Azetidinyl diamides as monoacylglycerol lipase inhibitors” (Janssen Pharmaceutica NV, priority 2009, dated 2013).

The target in one test is T1, mutant MGL (Homo sapiens, UniProt Q99685, L169S/L176S).
T1 sequence (Q99685 1-303 L169S/L176S): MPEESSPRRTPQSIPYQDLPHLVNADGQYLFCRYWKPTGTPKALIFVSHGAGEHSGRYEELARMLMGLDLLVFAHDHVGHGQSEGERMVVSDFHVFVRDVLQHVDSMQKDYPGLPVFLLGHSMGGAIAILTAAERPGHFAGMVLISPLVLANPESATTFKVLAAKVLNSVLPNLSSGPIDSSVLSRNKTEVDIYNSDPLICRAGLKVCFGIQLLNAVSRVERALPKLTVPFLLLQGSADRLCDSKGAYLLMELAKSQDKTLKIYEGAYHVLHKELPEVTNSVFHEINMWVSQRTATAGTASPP
Nature of the test: MGL ThermoFluor assay - mutant. Type of test: binding. The settings on record: ThermoFluor concentration-response, read-out: MGL mutant ThermoFluor Kd. Background: Differential scanning fluorimetry follows unfolding on heating by fluorescence.
Turning to `O=C(c1ccccc1)N1CCN(C2CN(C(=O)c3ccc(N4CCOCC4)cc3)C2)CC1` [Cpd 541, 4-[4-({3-[4-(Phenylcarbonyl)piperazin-1-yl]azetidin-1-yl}carbonyl)phenyl]morpholine], the Kd is 1.66 µM. As to `O=C(c1ccccc1)N1CCN(C2CN(C(=O)c3cc(-c4ccccc4)oc3C(F)(F)F)C2)CC1` [Cpd 624, 1-(Phenylcarbonyl)-4-(1-{[5-phenyl-2-(trifluoromethyl)furan-3-yl]carbonyl}azetidin-3-yl)piperazine], the Kd came out at 0.88 µM. As to `O=C(c1ccc(-c2ccccc2)cc1)N1CCN(C2CN(C(=O)c3ccc[nH]3)C2)CC1` [Cpd 1383, 1-(Biphenyl-4-ylcarbonyl)-4-[1-(1H-pyrrol-2-ylcarbonyl)azetidin-3-yl]piperazine], the Kd was found to be 0.108 µM. As for `O=C(c1ccccc1)N1CCN(C2CN(C(=O)c3ccc4[nH]c5c(c4c3)CCCC5)C2)CC1` [Cpd 55, 6-({3-[4-(Phenylcarbonyl)piperazin-1-yl]azetidin-1-yl}carbonyl)-2,3,4,9-tetrahydro-1H-carbazole], the Kd is 25 µM. Same read-out and setting: the same measure for `O=C(c1ccccc1)N1CCN(C2CN(C(=O)c3ccc(NCc4ccc(F)c(C(F)(F)F)c4)cc3)C2)CC1` [Cpd 494, N-[4-Fluoro-3-(trifluoromethyl)benzyl]-4-({3-[4-(phenylcarbonyl)piperazin-1-yl]azetidin-1-yl}carbonyl)aniline]: 0.1 µM.

Turning to `O=C(c1cc(F)cc(Br)c1)N1CC(N2CCN(C(=O)c3nccs3)CC2)C1` [Cpd 912], the Kd turned out to be 1.32 µM. `O=C(c1nccs1)N1CCN(C2CN(C(=O)C3CCC(c4ccccc4)CC3)C2)CC1` (stereo not drawn) [Cpd 475]: the Kd was determined as 0.025 µM. As for `O=C(c1ccc2[nH]ccc2c1)N1CC(N2CCN(C(=O)c3nccs3)CC2)C1` [Cpd 911, 5-({3-[4-(1,3-Thiazol-2-ylcarbonyl)piperazin-1-yl]azetidin-1-yl}carbonyl)-1H-indole], the Kd amounted to 0.333 µM. For `CCN(CC)c1ccc(C(=O)N2CC(N3CCN(C(=O)c4ccccc4)CC3)C2)cc1` [Cpd 30, N,N-Diethyl-4-({3-[4-(phenylcarbonyl)piperazin-1-yl]azetidin-1-yl}carbonyl)aniline], the Kd amounted to 0.118 µM. Take `O=C(c1ccccc1)N1CCN(C2CN(C(=O)c3ccc(CNc4ccccc4F)cc3)C2)CC1` [Cpd 553]: the Kd stood at 0.372 µM. On the same count and under the same terms, the same measure for `O=C(c1ccc(-c2cccc(Cl)c2)cc1)N1CC(N2CCN(C(=O)c3nccs3)CC2)C1` [Cpd 162, 1-{1-[(3′-Chlorobiphenyl-4-yl)carbonyl]azetidin-3-yl}-4-(1,3-thiazol-2-ylcarbonyl)piperazine]: 0.00067 µM; for `O=C(c1ccc(Oc2cccc(Cl)c2)cc1)N1CC(N2CCN(C(=O)c3nccs3)CC2)C1` [Cpd 421, 1-(1-{[4-(3-Chlorophenoxy)phenyl]carbonyl}azetidin-3-yl)-4-(1,3-thiazol-2-ylcarbonyl)piperazine]: 0.004 µM; for `Cc1nc(-c2cccc(C(F)(F)F)c2)sc1C(=O)N1CC(N2CCN(C(=O)c3ccccc3)CC2)C1` [Cpd 618, 1-[1-({4-Methyl-2-[3-(trifluoromethyl)phenyl]-1,3-thiazol-5-yl}carbonyl)azetidin-3-yl]-4-(phenylcarbonyl)piperazine]: 0.08 µM. The same measure, in the same setting: to `O=C(c1ccccc1)N1CCN(C2CN(C(=O)c3ccc(Oc4ccccn4)c(F)c3)C2)CC1` [Cpd 537] belongs 3.33 µM; to `O=C(c1ccc2c(c1)C(Cc1ccccc1)(Cc1ccccc1)C(=O)N2Cc1ccccc1)N1CC(N2CCN(C(=O)c3nccs3)CC2)C1` [Cpd 1431], 0.035 µM. Turning to `O=C(c1ccccc1)N1CCN(C2CN(C(=O)c3cnc(NCc4ccccc4)s3)C2)CC1` [Cpd 50, N-Benzyl-5-({3-[4-(phenylcarbonyl)piperazin-1-yl]azetidin-1-yl}carbonyl)-1,3-thiazol-2-amine], the Kd turned out to be 10 µM. Same read-out and setting: the same measure for `Cn1cccc1C(=O)N1CCN(C2CN(C(=O)c3ccc(-c4ccccc4)cc3)C2)CC1` [Cpd 11, 1-[1-(Biphenyl-4-ylcarbonyl)azetidin-3-yl]-4-[(1-methyl-1H-pyrrol-2-yl)carbonyl]piperazine]: 0.454 µM; for `COc1cc(C(=O)N2CC(N3CCN(C(=O)c4nccs4)CC3)C2)ccc1-c1ccccc1` [Cpd 1377]: 0.006 µM. On the same count and under the same terms, to `O=C(C#Cc1ccccc1)N1CC(N2CCN(C(=O)c3nccs3)CC2)C1` [Cpd 477] belongs 2 µM. With `O=C(c1ccccc1)N1CCN(C2CN(C(=O)c3ccccc3NCc3ccccc3)C2)CC1` [Cpd 52, N-Benzyl-2-({3-[4-(phenylcarbonyl)piperazin-1-yl]azetidin-1-yl}carbonyl)aniline], the Kd amounted to 3.33 µM. Consider `O=C(c1cc(Br)cc(C(F)(F)F)c1)N1CC(N2CCN(C(=O)c3nccs3)CC2)C1` [Cpd 910], for which the Kd was 1.33 µM.

Turning to `Cc1ccc(-c2ccc(C(=O)N3CC(N4CCN(C(=O)c5cscn5)CC4)C3)[nH]2)cc1` [Cpd 298], the Kd was determined as 2.91 µM.

Turning to `O=C(c1ccccc1)C1CCC(C(=O)N2CC(N3CCN(C(=O)c4cscn4)CC3)C2)CC1` (stereo not drawn) [Cpd 478], the Kd was found to be 2 µM.

Regarding `O=C(c1cc(Br)cc(C(F)(F)F)c1)N1CC(N2CCN(C(=O)c3cscn3)CC2)C1` [Cpd 923], the Kd amounted to 9.93 µM. The same measure, in the same setting: to `O=C(c1ccc2c(ccn2-c2ncc(F)cn2)c1)N1CC(N2CCN(C(=O)c3cscn3)CC2)C1` [Cpd 1248, 1-(5-Fluoropyrimidin-2-yl)-5-({3-[4-(1,3-thiazol-4-ylcarbonyl)piperazin-1-yl]azetidin-1-yl}carbonyl)-1H-indole] belongs 0.043 µM. On the same count and under the same terms, to `N#Cc1ccc(-c2ccc(C(=O)N3CC(N4CCN(C(=O)c5cscn5)CC4)C3)cc2)cc1` [Cpd 171] belongs 0.708 µM; to `O=C(c1ccc(Cc2ccc(C(F)(F)F)cc2)cc1)N1CC(N2CCN(C(=O)c3nccs3)CC2)C1` [Cpd 985], 0.005 µM; to `O=C(c1ccccc1)N1CCN(C2CN(C(=O)c3ccc(SCc4cccnc4)cc3)C2)CC1` [Cpd 555], 2 µM. Consider `COc1cc(C(=O)N2CC(N3CCN(C(=O)c4ccccc4)CC3)C2)ccc1Br` [Cpd 24, 1-{1-[(4-Bromo-3-methoxyphenyl)carbonyl]azetidin-3-yl}-4-(phenylcarbonyl)piperazine], for which the Kd came out at 5 µM. For `O=C(c1ccc(-c2ccccc2)cc1)N1CCN(C2CN(C(=O)c3nccs3)C2)C(c2ccccc2)C1` (stereo not drawn) [Cpd 1401, 4-(Biphenyl-4-ylcarbonyl)-2-phenyl-1-[1-(1,3-thiazol-2-ylcarbonyl)azetidin-3-yl]piperazine], the Kd is 1.25 µM. Still for that read-out and setting: to `Cc1c(-c2ccccc2)oc2c(C(=O)N3CC(N4CCN(C(=O)c5ccccc5)CC4)C3)cccc2c1=O` [Cpd 107, 3-Methyl-2-phenyl-8-({3-[4-(phenylcarbonyl)piperazin-1-yl]azetidin-1-yl}carbonyl)-4H-chromen-4-one] belongs 0.556 µM.

The same test, now with this note: ThermoFluor thermal stability binding assay, read-out: MGL mutant ThermoFluor Kd.
In the case of `COc1cc(C(=O)N2CC(N3CCN(C(=O)c4nccs4)CC3)C2)ccc1-c1cccc(C(F)(F)F)c1` [Cpd 247, 1-(1-{[2-Methoxy-3′-(trifluoromethyl)biphenyl-4-yl]carbonyl}azetidin-3-yl)-4-(1,3-thiazol-2-ylcarbonyl)piperazine], the Kd amounted to 0.0004 µM. For the compound `O=C(c1ccc(OCc2ccc(Cl)s2)cc1)N1CC(N2CCN(C(=O)c3nccs3)CC2)C1` [Cpd 962], the Kd was 0.005 µM. `CC(=O)N1c2ccc(Br)cc2CCC1C(=O)N1CC(N2CCN(C(=O)c3cscn3)CC2)C1` (stereo not drawn) [Cpd 377]: the Kd was over 76.7 µM. Consider `CC(=O)Nc1nc(C(=O)N2CCN(C3CN(C(=O)c4ccc(-c5ccccc5)cc4)C3)CC2)cs1` [Cpd 480], for which the Kd was over 76.7 µM.

With `O=C(c1ccccc1)N1CCN(C2CN(C(=O)c3ccc(OCc4cccnc4)c(Cl)c3)C2)CC1` [Cpd 409], the Kd was 2.03 µM. Take `CC(=O)Nc1cccc(-c2ccc(C(=O)N3CC(N4CCN(C(=O)c5ccccc5)CC4)C3)cc2)c1` [Cpd 233, N-[4′-({3-[4-(Phenylcarbonyl)piperazin-1-yl]azetidin-1-yl}carbonyl)biphenyl-3-yl]acetamide]: the Kd was found to be 1.32 µM. Take `O=C(c1ccccc1)N1CCN(C2CN(C(=O)c3ccc(OCc4ccncc4)c(Cl)c3)C2)CC1` [Cpd 408]: the Kd is 1.94 µM. On the same count and under the same terms, the same measure for `Cc1cc(C(=O)N2CC(N3CCN(C(=O)c4cscn4)CC3)C2)ccc1-c1cccc(C(F)(F)F)c1` [Cpd 242, 1-(1-{[2-Methyl-3′-(trifluoromethyl)biphenyl-4-yl]carbonyl}azetidin-3-yl)-4-(1,3-thiazol-4-ylcarbonyl)piperazine]: 0.004 µM; for `Cc1nc(-c2cccc(C(F)(F)F)c2)sc1C(=O)N1CC(N2CCN(C(=O)c3nccs3)CC2)C1` [Cpd 1407, 1-[1-({4-Methyl-2-[3-(trifluoromethyl)phenyl]-1,3-thiazol-5-yl}carbonyl)azetidin-3-yl]-4-(1,3-thiazol-2-ylcarbonyl)piperazine]: 0.005 µM. On the same count and under the same terms, to `O=C1Cc2cc(C(=O)N3CC(N4CCN(C(=O)c5nccs5)CC4)C3)ccc2N1` [Cpd 918] belongs 2.5 µM. In the case of `O=C(c1ccccc1)N1CCN(C2CN(C(=O)c3ccc(OCc4cccc(Cl)c4Cl)c(F)c3)C2)CC1` [Cpd 483], the Kd turned out to be 0.02 µM. On the same count and under the same terms, the same measure for `CS(=O)(=O)N1CCCc2cc(C(=O)N3CC(N4CCN(C(=O)c5cscn5)CC4)C3)ccc21` [Cpd 362]: 2.4 µM. The same measure, in the same setting: to `O=C(c1ccc(OCc2ccc(Cl)s2)cc1)N1CC(N2CCN(C(=O)c3cscn3)CC2)C1` [Cpd 963] belongs 0.102 µM.

Still in this test, the particulars now being: ThermoFluor, compound concentration measured by qNMR, read-out: MGL mutant ThermoFluor qKd (μM) (using qNMR conc.).
For the compound `Cc1cc(-n2ccc3cc(C(=O)N4CC(N5CCN(C(=O)c6cscn6)CC5)C4)ccc32)ccc1C#N` [Cpd 1421, 2-Methyl-4-[5-({3-[4-(1,3-thiazol-4-ylcarbonyl)piperazin-1-yl]azetidin-1-yl}carbonyl)-1H-indol-1-yl]benzonitrile], the Kd worked out at 0.044 µM.
